Test results taken from US6355799B1, “Substituted benzene compounds, process for their preparation, and herbicidal and defoliant compositions containing them” (ISK Americas Incorporated, priority 1997, dated 2002).

Key:
Format in all cases: in vivo
[1] = system: redroot pigweed (Amaranthus retroflexus, AMARE); assay: Pre-emerge test, greenhouse herbicide activity screening; conditions: rated 14 days after application, 0 = no damage, 100 = complete death
In short: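 Plants grown in 10 cm pots of sandy loam mix received acetone-dissolved compounds through a moving flat-fan nozzle. Doses ranged from 15 to 1000 g ai/ha. Pre-emerge pots were seeded one day earlier, post-emerge pots 8–21 days earlier. Fourteen days on, each pot was graded 0–100 for damage.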

[2] = system: barnyardgrass (Echinochloa crus-galli, ECHCG); assay: as above; conditions: rated 14 days after application, 0 = no damage, 100 = complete death
In short: (§1)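 Herbicidal damage is scored 0 (none) to 100 (complete plant death) two weeks after a simulated field spray. Rates span 15–1000 g ai/ha, delivered in acetone at 187 l/ha. For post-emergence treatments, plants have 2–3 leaves and the spray carries 0.25% v/v non-ionic surfactant.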

[3] = system: common ragweed (Ambrosia artemisizfolia L., AMBEL); assay: as above; conditions: rated 14 days after application, 0 = no damage, 100 = complete death
In short: as §1

[4] = system: green foxtail (Setaria viridis, SETVI); assay: as above; conditions: rated 14 days after application, 0 = no damage, 100 = complete death
In short: as §1

[5] = system: ivyleaf morningglory (Ipomoea hederacea, IPOHE); assay: as above; conditions: rated 14 days after application, 0 = no damage, 100 = complete death
In short: as §1

[6] = system: johnsongrass (Sorghum halepense, SORHA); assay: as above; conditions: rated 14 days after application, 0 = no damage, 100 = complete death
In short: as §1

[7] = system: lambsquarters (Chenopodium album, CHEAL); assay: as above; conditions: rated 14 days after application, 0 = no damage, 100 = complete death
In short: as §1

[8] = system: large crabgrass (Digitaria sanguinalis, DIGSA); assay: as above; conditions: rated 14 days after application, 0 = no damage, 100 = complete death
In short: as §1

[9] = system: sicklepod (Cassia obtusifolia, CASOB); assay: as above; conditions: rated 14 days after application, 0 = no damage, 100 = complete death
In short: as §1

[10] = system: velvetleaf (Abutilon theophrasti, ABUTH); assay: as above; conditions: rated 14 days after application, 0 = no damage, 100 = complete death
In short: as §1

[11] = system: field corn (Zea mays L., var. Dekalb 535, CORN); assay: Pre-emerge test, crop safety; conditions: rated 14 days after application, 0 = no damage, 100 = complete death
In short: (§2)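 Fourteen days after spraying, crop and weed injury was graded visually from 0, no effect, to 100, every plant dead. Test substances were dissolved in acetone and applied at 15–1000 g ai/ha with a flat-fan nozzle. Application was either pre-emergence, one day after sowing, or post-emergence at the 2–3 leaf stage.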

[12] = system: upland rice (Oryza sp., var. Tebonnet, RICE); assay: Pre-emerge test, crop safety; conditions: rated 14 days after application, 0 = no damage, 100 = complete death
In short: as §2

[13] = system: barnyardgrass (Echinochloa crus-galli, ECHCG); assay: Post-emerge test, greenhouse herbicide activity screening; conditions: post-emerge, 14 days after application, rating scale 0-100
In short: (§3)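 Compounds in acetone were track-sprayed at 187 l/ha, 15–1000 g ai/ha, onto sandy loam pots. Pre-emerge seeds were sown one day before spraying, with surface watering afterwards. Post-emerge plants were at the 2–3 leaf stage and sprayed with 0.25% v/v non-ionic surfactant. Injury was rated 0–100 at 14 days.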

[14] = system: common ragweed (Ambrosia artemisizfolia L., AMBEL); assay: as above; conditions: post-emerge, 14 days after application, rating scale 0-100
In short: as §3

[15] = system: green foxtail (Setaria viridis, SETVI); assay: as above; conditions: post-emerge, 14 days after application, rating scale 0-100
In short: as §3

[16] = system: ivyleaf morningglory (Ipomoea hederacea, IPOHE); assay: as above; conditions: post-emerge, 14 days after application, rating scale 0-100
In short: as §3

[17] = system: johnsongrass (Sorghum halepense, SORHA); assay: as above; conditions: post-emerge, 14 days after application, rating scale 0-100
In short: as §3

[18] = system: lambsquarters (Chenopodium album, CHEAL); assay: as above; conditions: post-emerge, 14 days after application, rating scale 0-100
In short: as §3

[19] = system: large crabgrass (Digitaria sanguinalis, DIGSA); assay: as above; conditions: post-emerge, 14 days after application, rating scale 0-100
In short: as §3

[20] = system: redroot pigweed (Amaranthus retroflexus, AMARE); assay: as above; conditions: post-emerge, 14 days after application, rating scale 0-100
In short: as §3

[21] = system: sicklepod (Cassia obtusifolia, CASOB); assay: as above; conditions: post-emerge, 14 days after application, rating scale 0-100
In short: as §3

[22] = system: velvetleaf (Abutilon theophrasti, ABUTH); assay: as above; conditions: post-emerge, 14 days after application, rating scale 0-100
In short: as §3

[23] = system: field corn (Zea mays L., var. Dekalb 535, CORN); assay: Post-emerge test, crop safety; conditions: post-emerge, 14 days after application, rating scale 0-100
In short: as §1

[24] = system: upland rice (Oryza sp., var. Tebonnet, RICE); assay: Post-emerge test, crop safety; conditions: post-emerge, 14 days after application, rating scale 0-100
In short: as §1

## COc1c(Cl)cc(F)c(-n2c(=O)cc(C(F)(F)F)n(C)c2=O)c1NC(=O)c1ccc(F)c(F)c1 [2-48]
[1]; 63 g ai/ha
  Pre-emerge Herbicidal Activity, phytotoxicity rating (0-100), AMARE: 100
[1]; 250 g ai/ha
  Pre-emerge Herbicidal Activity, phytotoxicity rating (0-100), AMARE: 100
[2]; 63 g ai/ha
  Pre-emerge Herbicidal Activity, phytotoxicity rating (0-100), ECHCG: 85
[2]; 250 g ai/ha
  Pre-emerge Herbicidal Activity, phytotoxicity rating (0-100), ECHCG: 100
[3]; 63 g ai/ha
  Pre-emerge Herbicidal Activity, phytotoxicity rating (0-100), AMBEL: 100
[3]; 250 g ai/ha
  Pre-emerge Herbicidal Activity, phytotoxicity rating (0-100), AMBEL: 100
[4]; 63 g ai/ha
  Pre-emerge Herbicidal Activity, phytotoxicity rating (0-100), SETVI: 100
[4]; 250 g ai/ha
  Pre-emerge Herbicidal Activity, phytotoxicity rating (0-100), SETVI: 100
[5]; 63 g ai/ha
  Pre-emerge Herbicidal Activity, phytotoxicity rating (0-100), IPOHE: 100
[5]; 250 g ai/ha
  Pre-emerge Herbicidal Activity, phytotoxicity rating (0-100), IPOHE: 100
[6]; 63 g ai/ha
  Pre-emerge Herbicidal Activity, phytotoxicity rating (0-100), SORHA: 95
[6]; 250 g ai/ha
  Pre-emerge Herbicidal Activity, phytotoxicity rating (0-100), SORHA: 95
[7]; 63 g ai/ha
  Pre-emerge Herbicidal Activity, phytotoxicity rating (0-100), CHEAL: 100
[7]; 250 g ai/ha
  Pre-emerge Herbicidal Activity, phytotoxicity rating (0-100), CHEAL: 100
[8]; 63 g ai/ha
  Pre-emerge Herbicidal Activity, phytotoxicity rating (0-100), DIGSA: 95
[8]; 250 g ai/ha
  Pre-emerge Herbicidal Activity, phytotoxicity rating (0-100), DIGSA: 100
[9]; 63 g ai/ha
  Pre-emerge Herbicidal Activity, phytotoxicity rating (0-100), CASOB: 100
[9]; 250 g ai/ha
  Pre-emerge Herbicidal Activity, phytotoxicity rating (0-100), CASOB: 100
[10]; 63 g ai/ha
  Pre-emerge Herbicidal Activity, phytotoxicity rating (0-100), ABUTH: 100
[10]; 250 g ai/ha
  Pre-emerge Herbicidal Activity, phytotoxicity rating (0-100), ABUTH: 100
[11]; 63 g ai/ha
  Pre-emerge phytotoxicity rating (0-100), crop damage, CORN: 90
[11]; 250 g ai/ha
  Pre-emerge phytotoxicity rating (0-100), crop damage, CORN: 99
[12]; 63 g ai/ha
  Pre-emerge phytotoxicity rating (0-100), crop damage, RICE: 90
[12]; 250 g ai/ha
  Pre-emerge phytotoxicity rating (0-100), crop damage, RICE: 99
[13]; 63 g ai/ha
  phytotoxicity rating ECHCG: 0
[13]; 250 g ai/ha
  phytotoxicity rating ECHCG: 80
[14]; 63 g ai/ha
  phytotoxicity rating AMBEL: 85
[14]; 250 g ai/ha
  phytotoxicity rating AMBEL: 100
[15]; 63 g ai/ha
  phytotoxicity rating SETVI: 20
[15]; 250 g ai/ha
  phytotoxicity rating SETVI: 70
[16]; 63 g ai/ha
  phytotoxicity rating IPOHE: 100
[16]; 250 g ai/ha
  phytotoxicity rating IPOHE: 100
[17]; 63 g ai/ha
  phytotoxicity rating SORHA: 30
[17]; 250 g ai/ha
  phytotoxicity rating SORHA: 60
[18]; 63 g ai/ha
  phytotoxicity rating CHEAL: 95
[18]; 250 g ai/ha
  phytotoxicity rating CHEAL: 100
[19]; 63 g ai/ha
  phytotoxicity rating DIGSA: 0
[19]; 250 g ai/ha
  phytotoxicity rating DIGSA: 20
[20]; 63 g ai/ha
  phytotoxicity rating AMARE: 95
[20]; 250 g ai/ha
  phytotoxicity rating AMARE: 100
[21]; 63 g ai/ha
  phytotoxicity rating CASOB: 50
[21]; 250 g ai/ha
  phytotoxicity rating CASOB: 100
[22]; 63 g ai/ha
  phytotoxicity rating ABUTH: 100
[22]; 250 g ai/ha
  phytotoxicity rating ABUTH: 100
[23]; 63 g ai/ha
  phytotoxicity rating CORN: 50
[23]; 250 g ai/ha
  phytotoxicity rating CORN: 70
[24]; 63 g ai/ha
  phytotoxicity rating RICE: 80
[24]; 250 g ai/ha
  phytotoxicity rating RICE: 86
